In series [1] the test system is U-251. The series is described as follows: Antiproliferative activity against doxorubicin resistant human U-251 cells assessed as inhibition of cell viability incubated for 48 hrs by sulforhodamine B assay. Type of series: functional, cell-based. The following applies: U-251, 48 h. (In general: The SRB assay estimates cell density from bound dye.)
Series [2] in a line: Inhibition of equine serum BuChE using butyrylthiocholine iodide as substrate preincubated for 5 mins followed by substrate addition by spectrophotometric Ellman's method. A general note: DTNB colorimetry detects thiols as they appear.
The target of series [3] is Acetylcholinesterase (Electrophorus electricus, UniProt O42275). The series is described as follows: Inhibition of electric eel AChE using acetylthiocholine iodide as substrate preincubated for 5 mins followed by substrate addition by spectrophotometric Ellman's method.
The nature of series [4]: Selectivity index, ratio of IC50 for inhibition of electric eel AChE to IC50 for inhibition of equine serum BuChE.
Series [5] concerns Aspergillus flavus. Briefly: Antifungal activity against Aspergillus flavus assessed as reduction in fungal growth. Type of series: functional.
Series [6] concerns Aspergillus niger. Briefly: Antifungal activity against Aspergillus niger assessed as reduction in fungal growth. Type of series: functional.
For series [7], the system named is Staphylococcus aureus. Briefly: Antimicrobial activity against Staphylococcus aureus assessed as bacterial growth inhibition. In kind it is functional.
In series [8] the test system is Pseudomonas aeruginosa. The series is described as follows: Antimicrobial activity against Pseudomonas aeruginosa assessed as bacterial growth inhibition. In kind it is functional.
Series [9] is described as follows: Cytotoxicity against human HEK293T cells. In kind it is toxicity, cell-based, HEK-293T.
Series [10] deals with Mycobacterium tuberculosis. Briefly: Antimicrobial activity against Mycobacterium tuberculosis H37Rv assessed as reduction in bacterial growth incubated for 7 days by broth micro dilution method. Type of series: functional. As to conditions: 168 h, time 7 day.
Series [11] deals with Proteus vulgaris. The series is described as follows: Antimicrobial activity against Proteus vulgaris assessed as bacterial growth inhibition incubated for 24 hrs by well diffusion method. Type of series: functional. In general terms: In agar diffusion tests the substance spreads into inoculated agar from a disc or well.
The subject of series [12] is Staphylococcus aureus. The series is described as follows: Antimicrobial activity against Staphylococcus aureus MTCC96 assessed as bacterial growth inhibition incubated for 24 hrs by well diffusion method. In kind it is functional.
Series [13] concerns Aspergillus flavus. Briefly: Antifungal activity against Aspergillus flavus NRRL-3357 assessed as reduction in fungal growth by well diffusion method. In kind it is functional.
The test system of series [14] is Candida albicans. Briefly: Antifungal activity against Candida albicans assessed as reduction in fungal growth by well diffusion method. Type of series: functional.
Series [15] relates to Bacillus subtilis. Briefly: Antimicrobial activity against Bacillus subtilis MTCC 121 assessed as bacterial growth inhibition incubated for 24 hrs by well diffusion method. Type of series: functional.
Series [16] relates to Escherichia coli. Briefly: Antimicrobial activity against Escherichia coli MTCC43 assessed as bacterial growth inhibition incubated for 24 hrs by well diffusion method. In kind it is functional.
A short description of series [17]: Inhibition of equine serum BuChE using butyrylthiocholine iodide as substrate preincubated for 15 mins followed by substrate addition and measured after 2 mins by DTNB reagent based Ellman's method.
Series [18] deals with Casein kinase 2 (Homo sapiens, UniProt P67870+P68400+P19784+Q8NEV1). The series is described as follows: Inhibition of recombinant human CK2 using RRRDDDSDDD as substrate in presence of [gamma-33P-ATP] incubated for 20 mins by beta-counter analysis. In kind it is protein assay.
The target of series [19] is T1, Tyrosinase (Agaricus bisporus, UniProt O42713).
T1 sequence (O42713 whole entry): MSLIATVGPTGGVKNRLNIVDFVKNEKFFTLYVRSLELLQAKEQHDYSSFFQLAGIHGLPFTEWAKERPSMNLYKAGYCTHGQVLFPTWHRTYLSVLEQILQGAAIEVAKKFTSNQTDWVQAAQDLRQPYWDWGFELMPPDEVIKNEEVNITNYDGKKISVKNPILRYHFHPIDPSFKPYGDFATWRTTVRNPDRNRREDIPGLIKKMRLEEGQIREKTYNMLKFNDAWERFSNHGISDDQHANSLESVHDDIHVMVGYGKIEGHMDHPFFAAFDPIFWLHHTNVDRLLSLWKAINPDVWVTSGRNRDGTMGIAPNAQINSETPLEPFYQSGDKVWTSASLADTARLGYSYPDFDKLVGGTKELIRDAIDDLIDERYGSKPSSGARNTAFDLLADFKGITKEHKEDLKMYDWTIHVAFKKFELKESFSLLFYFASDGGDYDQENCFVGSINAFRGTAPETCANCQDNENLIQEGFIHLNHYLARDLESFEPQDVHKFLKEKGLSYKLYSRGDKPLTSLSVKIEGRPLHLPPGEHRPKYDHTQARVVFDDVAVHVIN
Briefly: Inhibition of mushroom tyrosinase using L-DOPA as substrate preincubated for 10 mins followed by substrate addition and measured after 1 mins by spectrophotometric analysis.

Series [20] concerns the target T2, Amyloid-beta precursor protein (Homo sapiens, UniProt P05067). The series is described as follows: Inhibition of amyloid beta (1 to 42) (unknown origin) self aggregation by ThT-based fluorometric assay.
Series [21] deals with T2, Amyloid-beta precursor protein. The series is described as follows: Inhibition of self-induced amyloid beta (1 to 42) (unknown origin) disaggregation by ThT-based fluorometric assay.
In series [22] the target is T3, Amine oxidase [flavin-containing] B (Homo sapiens, UniProt P27338).
T3 sequence (P27338 whole entry): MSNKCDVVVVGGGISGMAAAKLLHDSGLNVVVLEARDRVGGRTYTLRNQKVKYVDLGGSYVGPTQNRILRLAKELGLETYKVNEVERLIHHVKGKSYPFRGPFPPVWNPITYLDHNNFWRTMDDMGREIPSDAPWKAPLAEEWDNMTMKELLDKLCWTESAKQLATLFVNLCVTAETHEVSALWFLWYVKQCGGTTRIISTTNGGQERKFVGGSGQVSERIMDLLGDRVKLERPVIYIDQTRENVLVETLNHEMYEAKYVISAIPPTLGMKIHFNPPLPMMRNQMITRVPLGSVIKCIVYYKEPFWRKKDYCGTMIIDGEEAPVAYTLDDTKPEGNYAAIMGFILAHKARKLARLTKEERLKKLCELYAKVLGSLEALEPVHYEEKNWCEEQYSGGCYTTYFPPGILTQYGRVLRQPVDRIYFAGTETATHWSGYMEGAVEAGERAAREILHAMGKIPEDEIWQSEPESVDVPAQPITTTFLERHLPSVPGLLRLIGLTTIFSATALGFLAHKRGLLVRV
The series is described as follows: Inhibition of recombinant human MAO-B.

The target of series [23] is Serine/threonine-protein kinase AKT (Homo sapiens, UniProt P31751+Q9Y243+P31749). Briefly: Inhibition of AKT (unknown origin) by FRET based Z'-LYTE assay. Type of series: protein assay.
In series [24] the test system is Pseudomonas aeruginosa. Briefly: Antimicrobial activity against Pseudomonas aeruginosa MTCC 1688 assessed as bacterial growth inhibition by broth microdilution method. Type of series: functional.

Converted amounts (≈) assume the structure as drawn.

This is an account of results in ChEMBL document CHEMBL5236572, “Bioactive Aurones, Indanones, and Other Hemiindigoid Scaffolds: Medicinal Chemistry and Photopharmacology Perspectives” (J Med Chem, 2022).

T2 sequence (P05067 whole entry): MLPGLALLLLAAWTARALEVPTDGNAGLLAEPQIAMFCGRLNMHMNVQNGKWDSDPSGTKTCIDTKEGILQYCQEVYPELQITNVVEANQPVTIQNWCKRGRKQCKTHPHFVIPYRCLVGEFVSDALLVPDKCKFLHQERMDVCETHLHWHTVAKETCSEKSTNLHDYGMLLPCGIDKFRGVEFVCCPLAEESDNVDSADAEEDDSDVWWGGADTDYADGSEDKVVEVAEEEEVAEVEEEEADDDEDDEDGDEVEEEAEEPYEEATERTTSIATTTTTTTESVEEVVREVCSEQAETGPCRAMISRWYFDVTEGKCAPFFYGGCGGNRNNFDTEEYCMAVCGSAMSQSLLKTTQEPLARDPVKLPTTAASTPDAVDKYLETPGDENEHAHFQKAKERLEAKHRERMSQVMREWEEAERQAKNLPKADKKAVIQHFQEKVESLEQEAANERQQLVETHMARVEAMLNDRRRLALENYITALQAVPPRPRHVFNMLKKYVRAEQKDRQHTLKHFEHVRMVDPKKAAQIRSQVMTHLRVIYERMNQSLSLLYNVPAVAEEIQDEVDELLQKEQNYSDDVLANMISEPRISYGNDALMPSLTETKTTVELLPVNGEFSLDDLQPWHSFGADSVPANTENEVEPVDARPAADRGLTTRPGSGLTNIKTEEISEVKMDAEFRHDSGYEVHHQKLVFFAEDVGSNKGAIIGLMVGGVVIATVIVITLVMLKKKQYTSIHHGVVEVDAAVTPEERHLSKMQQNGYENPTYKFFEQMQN
Chain of Acetylcholinesterase (O42275 whole entry): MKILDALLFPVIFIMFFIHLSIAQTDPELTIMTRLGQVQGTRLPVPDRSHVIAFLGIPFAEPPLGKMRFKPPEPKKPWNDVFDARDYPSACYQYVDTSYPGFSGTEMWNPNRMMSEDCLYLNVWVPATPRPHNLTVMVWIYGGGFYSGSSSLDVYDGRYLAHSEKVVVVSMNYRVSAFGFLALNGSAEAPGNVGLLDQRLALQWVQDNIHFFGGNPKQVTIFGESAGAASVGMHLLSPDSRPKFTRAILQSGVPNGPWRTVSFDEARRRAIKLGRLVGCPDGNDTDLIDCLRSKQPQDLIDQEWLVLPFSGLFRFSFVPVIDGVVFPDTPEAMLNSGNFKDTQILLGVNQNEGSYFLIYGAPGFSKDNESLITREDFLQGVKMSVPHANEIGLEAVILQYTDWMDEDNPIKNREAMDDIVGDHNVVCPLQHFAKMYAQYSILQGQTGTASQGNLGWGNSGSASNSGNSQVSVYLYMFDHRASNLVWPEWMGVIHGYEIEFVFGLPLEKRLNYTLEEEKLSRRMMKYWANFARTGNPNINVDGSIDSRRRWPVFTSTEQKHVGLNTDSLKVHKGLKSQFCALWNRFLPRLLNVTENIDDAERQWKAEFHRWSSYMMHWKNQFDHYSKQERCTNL

Consider `O=C1/C(=C(\O)c2ccc3ccccc3c2)Cc2ccccc21`, for which the concentration for half-maximal inhibition (IC50) (usually the concentration needed to halve the response being measured) in [1] worked out at 2.5 µM.

In the case of `COc1ccc(NC(=O)Oc2cccc(/C=C3\Cc4cc(OC)c(OC)cc4C3=O)c2)cc1`, the IC50 in [2] was 0.31 µM; in series [3] it was 21 µM. The Ratio IC50 in series [4] amounted to 70.

`Cc1ccc2c(c1)C(=O)/C(=C/c1coc3ccc(C)cc3c1=O)O2`: the MIC – broadly, the lowest concentration found to suppress growth – in series [5] came to 14 µM (≈ 4.46 µg/mL); in series [6] it was 14 µM (≈ 4.46 µg/mL); in series [7], 1.6 µM (≈ 0.509 µg/mL); in series [8], 1.6 µM (≈ 0.509 µg/mL).

For the molecule `CC(=O)N1/C(=C\c2ccc(-c3cnc4ccccc4c3)cc2)C(=O)c2ccccc21`, in series [9], the CC50 – broadly, the concentration at which the toxic effect on the cells reaches its halfway point – is 0.019 µM. In [10], the MIC90 – broadly, the lowest concentration that inhibits either 90% of growth or 90% of the strains tested, depending on the study – came to 0.65 µM (≈ 0.254 µg/mL) and the MIC99 (usually the lowest concentration that inhibits either 99% of growth or 99% of the strains tested, depending on the study) is 0.74 µM (≈ 0.289 µg/mL).

With `O=C1/C(=C/c2ccc(Br)cc2)Oc2c1ccc1c2C=CCO1`, the MIC in series [11] amounted to 4.4 µM (≈ 1.56 µg/mL); in series [12], 4.4 µM (≈ 1.56 µg/mL); in series [13] it was 18 µM (≈ 6.39 µg/mL); in [14] it was 18 µM (≈ 6.39 µg/mL); in series [15], 4.4 µM (≈ 1.56 µg/mL); in series [16] it was 4.4 µM (≈ 1.56 µg/mL).

In the case of `COc1cc2c(cc1OC)C(=O)/C(=C/c1cc[n+](Cc3ccccc3F)cc1)O2`, the half-inhibitory concentration (IC50) in series [17] is 1.62 µM.

`O=C1/C(=C/c2ccc(O)c(Br)c2)Oc2c(Br)cccc21`: the 50% inhibitory concentration (IC50) in [18] was 0.0033 µM.

`CN(C)c1ccc(/C=C2\Cc3ccccc3C2=O)c([N+](=O)[O-])c1` returned an IC50 in series [19] of 8.12 µM.

For the molecule `COc1cc2c(cc1OC)C(=O)/C(=C/c1ccc([N+](=O)[O-])cc1)C2`, the IC50 came to 1.8 µM in [20], 7.9 µM in series [21] and 0.03 µM in series [22].

Molecule `Cc1ccc2c(c1C)C(=O)/C(=C/c1ccccc1)C2` showed a half-inhibitory concentration (IC50) in series [23] of 0.066 µM.

In the case of `C=CCn1c(=O)c(/C=C2\Oc3cc(O)cc(O)c3C2=O)cc2cc(C)ccc21`, the MIC in series [24] is 33 µM (≈ 12.4 µg/mL).
